From EP1322622B1, “NEW N, N'-DISUBSTITUTED BENZIMIDAZOLONE DERIVATIVES WITH AFFINITY AT THE SEROTONIN AND DOPAMINE RECEPTORS” (Sprout Pharmaceuticals, Inc., priority 2000, dated 2002)
pIC50: −log10 of the molar value.

Key:
CHO/5-HT1A cells = biological target: T1, CHO/5-HT1A cells (Homo sapiens, UniProt P08908); assay: 5-HT1A Functional assay (cAMP); format: cell-based; conditions: 10 µM compound; % inhibition of the cAMP accumulation induced by 10 µM FSK; read-out: 5-HT1A cAMP % inhib.
T1 construct: expressed in transfected cells; host or cells: CHO/5-HT1A cells
T1 sequence (P08908 1-422): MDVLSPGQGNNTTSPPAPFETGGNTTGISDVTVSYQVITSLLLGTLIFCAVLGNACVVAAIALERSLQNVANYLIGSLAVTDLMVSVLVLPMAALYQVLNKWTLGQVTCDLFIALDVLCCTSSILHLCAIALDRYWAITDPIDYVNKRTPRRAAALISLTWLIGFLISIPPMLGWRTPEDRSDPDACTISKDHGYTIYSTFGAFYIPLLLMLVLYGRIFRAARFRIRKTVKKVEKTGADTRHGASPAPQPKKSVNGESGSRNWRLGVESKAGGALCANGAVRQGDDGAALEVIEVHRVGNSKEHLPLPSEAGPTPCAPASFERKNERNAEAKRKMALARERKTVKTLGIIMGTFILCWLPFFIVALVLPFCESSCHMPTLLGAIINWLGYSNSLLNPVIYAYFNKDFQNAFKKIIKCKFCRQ
Method: CHO/5-HT1A cells were random seeded at a density of about 200,000/well in 24 well plates the day prior to the experiment. On the day of the experiment, cells were pretreated for 15 min at 37 °C with 500 µM isobuthylmethylxantine (IBMX) dissolved in culture medium without serum. Wells were then divided in different groups in duplicate as follows: control, 10 µM FSK, 10 µM FSK + 1 µM 5-HT as positive standard and 10 µM FSK + 10 µM of the different compound under evaluation. Sample solutions were added and incubated for additional 15 min at 37 °C. After incubation, medium was aspirated and the reaction stopped by adding 200 µl of lysis buffer. Plates were shaken for 5 min, then the lysate was removed and samples were stored at 4 °C until the day of the assay. For the cAMP evaluation, samples were properly diluted and the cAMP content was measured by an enzymeimmunoassay system.

D4 human receptors = biological target: T2, D4 human receptors (Homo sapiens, UniProt P21917); assay: D4 Radioligand Receptor Binding Assay ([3H] YM-09151-2, CHO cell membranes); conditions: compound at 10^-7 M, singlicate; [3H] YM-09151-2 0.15-0.25 nM; read-out: D4 receptor binding assay % inhib. (10^-7 M)
T2 construct: expressed in transfected cells; host or cells: CHO cells
T2 sequence (P21917 1-419): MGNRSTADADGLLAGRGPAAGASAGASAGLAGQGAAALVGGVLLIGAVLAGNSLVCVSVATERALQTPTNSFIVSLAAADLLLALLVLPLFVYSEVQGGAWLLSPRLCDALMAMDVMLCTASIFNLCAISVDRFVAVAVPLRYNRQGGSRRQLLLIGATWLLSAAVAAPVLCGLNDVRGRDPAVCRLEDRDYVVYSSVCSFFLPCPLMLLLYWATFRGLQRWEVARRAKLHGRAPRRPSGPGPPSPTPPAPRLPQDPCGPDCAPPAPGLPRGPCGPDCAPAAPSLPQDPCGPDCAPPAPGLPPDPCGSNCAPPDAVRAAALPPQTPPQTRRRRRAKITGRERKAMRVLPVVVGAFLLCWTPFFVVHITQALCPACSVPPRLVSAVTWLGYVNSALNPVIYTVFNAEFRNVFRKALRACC
Method: Membranes from CHO cells, expressing D4 human receptors were suspended in incubation buffer.
Binding assays were performed in MultiProbe 204 pipetting system (Packard), according to a predetermined mapping, consistent with the software Screen. The compounds were tested in singlicate at one concentration (10^-7 M) in a total volume of 1000 µl (980 µl of diluted membranes, 10 µl DMSO or unlabelled ligand and 10 µl of [^3H] YM-09151-2 (0.15-0.25 nM). After incubation for 120 min at 27 °C, the reaction was stopped by rapid filtration through Tomtec cell Harvester (48 wells) using Filtermat B (presoaked in 0.1% PEI) filters. Filters were washed with ice-cold 50 mM Tris-HCl (pH 7.4) buffer (9 x 700 µl), dryed, covered with MeltiLex B/HS (Wallac) scintillator sheets and heated in oven at 80-90 °C for about 10 min, transferred into plastic sample bags (Wallac), sealed and put into 1024 Beta Plate scintillation counter (Wallac). Non specific binding was determined in the presence of clozapine dissolved in DMSO to a final concentration of 10^-5 M.
(§1) The specific radioligand binding to the receptor was defined by the difference between total binding and non specific binding, determined in the presence of an excess of unlabelled ligand. Results were expressed as percentage of control specific binding obtained in the presence of the compounds.

5-HT2A = biological target: T3, 5-HT2A (Rattus norvegicus, UniProt P14842); assay: 5HT2A Radioligand Receptor Binding Assay ([3H]-Ketanserin, cerebral frontal cortex membranes); parameters: species or system Rats; conditions: 0.5 nM [3H]-Ketanserin
T3 construct: Cerebral frontal cortex was homogenized in 10 volumes of ice cold 0.32 M sucrose; from tissue; host or cells: rat cerebral frontal cortex membranes
Method: Rats (male Sprague-Dawley, 200-250 g) were used. Cerebral frontal cortex was homogenized in 10 volumes of ice cold 0.32 M sucrose in 5 mM Tris-HCl ([…]) buffer. After centrifugation of the homogenate (1,000 x g for 10 min) the supernatant was then recentrifuged at 48,000x g for 15 min.The resulting pellet was gently homogenized in an equal volume of 50mM Tris-HCl buffer (pH 7.4) and incubated at 37° C for 10 minutes. Membranes were then collected by centrifugation as above described and finally resuspended in 10 volumes of 50mM Tris-HCl buffer (pH 7.4).
For displacement experiments membranes (980 µl) were diluted in 50 mM Tris-HCl buffer (pH 7.4) to a final concentration of 1:100 (w/v); the tissue suspension was then incubated at 37 °C for 10 min in a final volume of 1 ml in the presence of 0.5 nM [^3H]-Ketanserin. Non specific binding was determined by incubating similar samples with unlabelled methysergide (100 µM). […] The filters were washed three times with 2 ml ice-cold Tris-HCl buffer and placed in polyethylene vials, then 4 ml of Filter Count scintillation cocktail (Packard) were added. The radioactivity present was counted by liquid scintillation spectrometry.
(§2) The affinity values (IC50) for the compounds were obtained by a non linear least squares regression analysis on the basis of a one binding site model.

5-HT1A human receptors = biological target: T4, 5-HT1A human receptors (Homo sapiens, UniProt P08908); assay: 5-HT1A Radioligand Receptor Binding Assay ([3H]-8-OH-DPAT, CHO cell membranes); conditions: for pIC50: [3H]-8-OH-DPAT displacement, CHO membranes, read-out: 5-HT1A receptor binding IC50; for inhibition at 0.1 µM: compound at 10^-7 M, singlicate, [3H]-8-OH-DPAT 0.6-0.7 nM, read-out: 5-HT1A receptor binding assay % inhib. (10^-7 M)
T4 construct: expressed in transfected cells; host or cells: CHO cells
T4 sequence (P08908 1-422): T1 sequence (P08908 1-422)
Method: Membranes from CHO cells, expressing 5-HT1A human receptors were suspended in incubation buffer.
The compounds were tested in singlicate at one concentration (10^-7 M) in a total volume of 1000 µl. 980 µl of diluted membranes, 10 µl DMSO or unlabelled ligand and 10 µl of [^3H]-8-OH-DPAT (0.6-0.7 nM) were incubated for 60 min at 27 °C. The reaction was stopped by rapid filtration through Tomtec cell Harvester (48 wells) using Filtermat B (presoaked in 0.1% PEI) filters. […] Non specific binding was determined in the presence of 5-HT (10^-5 M).
as §1, §2

T3 sequence (P14842 whole entry): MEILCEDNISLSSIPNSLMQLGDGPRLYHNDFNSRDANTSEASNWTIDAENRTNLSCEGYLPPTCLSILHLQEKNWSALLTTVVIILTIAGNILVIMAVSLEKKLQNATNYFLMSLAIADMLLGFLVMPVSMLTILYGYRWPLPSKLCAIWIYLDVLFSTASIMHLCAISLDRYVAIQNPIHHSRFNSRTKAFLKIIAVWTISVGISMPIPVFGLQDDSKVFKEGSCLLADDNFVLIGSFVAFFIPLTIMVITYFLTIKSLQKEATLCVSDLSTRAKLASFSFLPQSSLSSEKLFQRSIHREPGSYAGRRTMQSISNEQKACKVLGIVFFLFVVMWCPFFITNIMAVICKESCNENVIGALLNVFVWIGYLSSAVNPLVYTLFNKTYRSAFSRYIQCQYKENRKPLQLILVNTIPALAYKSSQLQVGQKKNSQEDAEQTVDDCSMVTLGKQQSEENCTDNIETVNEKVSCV

Molecule `COCCn1c(=O)n(CCCCN2CCN(c3cccc(C(F)(F)F)c3)CC2)c2ccccc21` [compound 9] has an inhibition at 10 µM (CHO/5-HT1A cells) of 48%, an inhibition at 0.1 µM (D4 human receptors) of 32% and a pIC50 (5-HT2A) of 7.80. The pIC50 (5-HT1A human receptors) was 8.00 and the inhibition at 0.1 µM (5-HT1A human receptors) was 93%.
`Cc1cccc(N2CCN(CCCCn3c(=O)n(CCO)c4ccccc43)CC2)c1C` [compound 73] showed an inhibition at 10 µM (CHO/5-HT1A cells) of 45%, an inhibition at 0.1 µM (D4 human receptors) of 58% and a pIC50 (5-HT2A) of 9.05. For the same molecule, the pIC50 (5-HT1A human receptors) was 7.89 and the inhibition at 0.1 µM (5-HT1A human receptors) was 91%.
With `CCNC(=O)OCCn1c(=O)n(CCCCN2CCN(c3cccc(C(F)(F)F)c3)CC2)c2ccccc21` [compound 83] the inhibition at 10 µM (CHO/5-HT1A cells) was 64%, the inhibition at 0.1 µM (D4 human receptors) was 39% and the pIC50 (5-HT2A) was 7.37. It also gave a pIC50 (5-HT1A human receptors) of 7.82 and an inhibition at 0.1 µM (5-HT1A human receptors) of 89%.
For `COCCn1c(=O)n(CCN2CCN(c3cccc(C(F)(F)F)c3)CC2)c2ccccc21` [compound 168], the inhibition at 10 µM (CHO/5-HT1A cells) was 71%, the pIC50 (5-HT2A) was 7.34 and the pIC50 (5-HT1A human receptors) was 8.30.
`COCCn1c(=O)n(CCN2CCN(c3cccc(C)c3C)CC2)c2ccccc21` [compound 177] showed an inhibition at 10 µM (CHO/5-HT1A cells) of 76%, a pIC50 (5-HT2A) of 8.11 and a pIC50 (5-HT1A human receptors) of 8.48. It also gave an inhibition at 0.1 µM (5-HT1A human receptors) of 98%.
With `O=c1n(CCO)c2ccccc2n1CCN1CCN(c2cccc(Cl)c2)CC1` [compound 183] the inhibition at 10 µM (CHO/5-HT1A cells) was 66%, the inhibition at 0.1 µM (D4 human receptors) was 62% and the pIC50 (5-HT2A) was 7.57. It also gave a pIC50 (5-HT1A human receptors) of 8.14 and an inhibition at 0.1 µM (5-HT1A human receptors) of 96%.
`CCNC(=O)OCCn1c(=O)n(CCN2CCN(c3cccc(C(F)(F)F)c3)CC2)c2ccccc21` [compound 206] gave an inhibition at 10 µM (CHO/5-HT1A cells) of 80%, a pIC50 (5-HT2A) of 7.77 and a pIC50 (5-HT1A human receptors) of 8.68.
`Cc1cccc(N2CCN(CCn3c(=O)n(CCNS(C)(=O)=O)c4ccccc43)CC2)c1C` [compound 254] was tested, and the inhibition at 10 µM (CHO/5-HT1A cells) was 66%, the inhibition at 0.1 µM (D4 human receptors) was 34% and the pIC50 (5-HT2A) was 7.19. For the same molecule, the pIC50 (5-HT1A human receptors) was 8.13 and the inhibition at 0.1 µM (5-HT1A human receptors) was 85%.
Work on `CCNC(=O)OCCn1c(=O)n(C/C=C/CN2CCN(c3cccc(Cl)c3)CC2)c2ccccc21` [compound 416] yielded an inhibition at 10 µM (CHO/5-HT1A cells) of 77%, an inhibition at 0.1 µM (D4 human receptors) of 39% and an inhibition at 0.1 µM (5-HT1A human receptors) of 96%.
`CC(=O)NCCn1c(=O)n(CCN2CCN(c3cccc(C)c3C)CC2)c2ccccc21` [compound 446] showed an inhibition at 10 µM (CHO/5-HT1A cells) of 81%, an inhibition at 0.1 µM (D4 human receptors) of 31% and a pIC50 (5-HT1A human receptors) of 8.14. For the same molecule, the inhibition at 0.1 µM (5-HT1A human receptors) was 92%.
`CS(=O)(=O)NCCn1c(=O)n(C/C=C\CN2CC=C(c3ccccc3)CC2)c2ccccc21` [compound 504] was tested, and the inhibition at 10 µM (CHO/5-HT1A cells) was 50%, the inhibition at 0.1 µM (D4 human receptors) was 34% and the inhibition at 0.1 µM (5-HT1A human receptors) was 93%.
